Activity calls are given as the source filed them. No cut-off for these calls is given here. Where only a bound is given, the exact number is not on record here.

The nature of data set [1]: Metabolic stability in rat liver microsomes assessed as half life preincubated for 2 hrs followed by NADPH regenerating system addition and measured upto 4 hrs by LC-MS method. In kind it is ADME, Microsome. As to conditions: time < 6 hrs.
Data set [2] is described as follows: Toxicity in mouse xenografted with human HCT-116 cells assessed as reduction in kidney damage at 50 mg/kg, po administered for 20 days and measured every 2 days by H and E staining based method. In kind it is organism-based. As to conditions: in vivo, 480 h, time 20 day. In general terms: Xenograft models place foreign cells or tissue in a host animal.
In data set [3] the test system is HeLa. Nature of the data set: Antiproliferative activity against human HeLa cells incubated for 48 hrs by CCK-8 assay. In kind it is functional, cell-based. (Tetrazolium dyes change colour on reduction, which living cells bring about.)
The subject of data set [4] is HCT-116. Nature of the data set: Antitumor activity against human HCT-116 cells xenografted in nude mouse assessed as reduction in tumor weight at 50 mg/kg, po administered for 20 days and measured every 2 days. The format is functional. More on the design: scale not given: the % may be the effect or the level left. As to conditions: time 20 day.
Data set [5] relates to MDA-MB-231. Nature of the data set: Antiproliferative activity against human MDA-MB-231 cells incubated for 48 hrs by CCK-8 assay. As to conditions: MDA-MB-231, 48 h. The format is functional, cell-based.
Data set [6] in a line: Antiproliferative activity against human HEK293T cells incubated for 48 hrs by CCK-8 assay. In kind it is toxicity, cell-based, HEK-293T.
Data set [7] relates to SW480. In words: Antiproliferative activity against human SW480 cells incubated for 48 hrs by CCK-8 assay. The format is functional, cell-based. As to conditions: SW480, 48 h.
Data set [8] can be described thus: Metabolic stability in human liver microsomes assessed as half life preincubated for 2 hrs followed by NADPH regenerating system addition and measured upto 4 hrs by LC-MS method. The format is ADME, Microsome. Conditions: time < 6 hrs.
Data set [9] in a line: Toxicity in mouse xenografted with human HCT-116 cells assessed as reduction in liver damage at 50 mg/kg, po administered for 20 days and measured every 2 days by H and E staining based method. In kind it is organism-based. Conditions: in vivo, 480 h, time 20 day.
Data set [10] relates to HCT-116. Nature of the data set: Antitumor activity against human HCT-116 cells xenografted in nude mouse assessed as reduction in tumor volume at 50 mg/kg, po administered for 20 days and measured every 2 days. In kind it is functional. Also on record: scale not given: the % may be the effect or the level left. As to conditions: time 20 day.
Data set [11] can be described thus: Toxicity in mouse xenografted with human HCT-116 cells assessed as reduction in body weight at 50 mg/kg, po administered for 20 days and measured every 2 days. In kind it is organism-based. As to conditions: in vivo, 480 h, time 20 day.
Data set [12] has as its system HCT-116. Nature of the data set: Antiproliferative activity against human HCT-116 cells incubated for 48 hrs by CCK-8 assay. The format is functional, cell-based. As to conditions: HCT-116, 48 h.
Data set [13] deals with HepG2. In words: Antiproliferative activity against human HepG2 cells incubated for 48 hrs by CCK-8 assay. The format is functional, cell-based. As to conditions: HepG2, 48 h.
Data set [14] concerns HCT-116. Nature of the data set: Induction of apoptosis in human HCT-116 cells assessed as necrotic cells at 0.5 uM incubated for 24 hrs by Annexin V and PI staining based flow cytometry analysis (reference value: 0.04%). In kind it is functional. On the technique in general: A flow cytometer gives signals particle by particle.
Data set [15] relates to HCT-116. Nature of the data set: Induction of apoptosis in human HCT-116 cells assessed as late apoptotic cells at 2 uM incubated for 24 hrs by Annexin V and PI staining based flow cytometry analysis (reference value: 0.07%). In kind it is functional.
In data set [16] the target is T1, Tubulin (Homo sapiens) (UniProt P68371+Q9H4B7+P0DPH7+P68366+Q13509+Q71U36+P04350+Q3ZCM7+P07437+P68363+Q9BQE3+Q6PEY2+Q13885+Q9BVA1+Q9BUF5). Nature of the data set: Induction of microtubule depolymerization in human HCT-116 cells assessed as appearance of microtubules wrapped around nucleus at 40 nM by immunofluorescent assay. In kind it is cell-based.
The test system of data set [17] is HCT-116. Nature of the data set: Induction of apoptosis in human HCT-116 cells assessed as late apoptotic cells at 0.125 uM incubated for 24 hrs by Annexin V and PI staining based flow cytometry analysis (reference value: 0.07%). In kind it is functional.
Data set [18] relates to HCT-116. Nature of the data set: Induction of cell cycle arrest in human HCT-116 cells assessed as increase in G2/M phase cells incubated for 48 hrs by PI staining based flow cytometry analysis. In kind it is functional. As to conditions: dose 0.5-2 µM.
The nature of data set [19]: Toxicity in mouse xenografted with human HCT-116 cells assessed as reduction in body weight at 50 to 100 mg/kg, po administered for 20 days and measured every 2 days. The format is organism-based. As to conditions: in vivo, 480 h, dose 50-100 mg/kg, time 20 day.
For data set [20], the system named is HCT-116. Nature of the data set: Induction of apoptosis in human HCT-116 cells assessed as viable cells at 2 uM incubated for 24 hrs by Annexin V and PI staining based flow cytometry analysis (reference value: 99.63%). Conditions: read-out: Activity. In kind it is functional.
A short description of data set [21]: Toxicity in mouse xenografted with human HCT-116 cells assessed as reduction in kidney damage at 50 to 100 mg/kg, po administered for 20 days and measured every 2 days by H and E staining based method. As to conditions: in vivo, 480 h, dose 50-100 mg/kg, time 20 day. The format is organism-based.
Data set [22] has as its system HCT-116. In words: Induction of apoptosis in human HCT-116 cells assessed as viable cells at 0.125 uM incubated for 24 hrs by Annexin V and PI staining based flow cytometry analysis (reference value: 99.63%). In kind it is functional. Conditions: read-out: Activity.
For data set [23], the target named is T1, Tubulin (Homo sapiens). Nature of the data set: Induction of microtubule depolymerization in human HCT-116 cells assessed as appearance of microtubules wrapped around nucleus at 160 nM by immunofluorescent assay. In kind it is cell-based.
Data set [24] deals with Tubulin (Sus scrofa, UniProt P02554+P02550). Nature of the data set: Inhibition of pig brain tubulin polymerization incubated for […] by spectrophotometric method. In kind it is tissue-based.
In data set [25] the test system is HCT-116. In words: Induction of apoptosis in human HCT-116 cells assessed as late apoptotic cells at 0.5 uM incubated for 24 hrs by Annexin V and PI staining based flow cytometry analysis (reference value: 0.07%). The format is functional.
Data set [26] has as its system HCT-116. Nature of the data set: Inhibition of colony formation in human HCT-116 cells at 2 uM incubated with compound for 24 hrs followed by media replacement and measured after 10 days by crystal violet staining based assay. In kind it is functional.
Data set [27] has as its system HCT-116. In words: Induction of apoptosis in human HCT-116 cells assessed as early apoptotic cells at 0.125 uM incubated for 24 hrs by Annexin V and PI staining based flow cytometry analysis (reference value: 0.26%). In kind it is functional.
In data set [28] the test system is HCT-116. Nature of the data set: Induction of apoptosis in human HCT-116 cells assessed as early apoptotic cells at 2 uM incubated for 24 hrs by Annexin V and PI staining based flow cytometry analysis (reference value: 0.26%). In kind it is functional.
Data set [29] deals with HCT-116. In words: Antitumor activity against human HCT-116 cells xenografted in nude mouse assessed as reduction in tumor weight at 100 mg/kg, po administered for 20 days and measured every 2 days. In kind it is functional, organism-based. As to conditions: time 20.0 day.
The nature of data set [30]: Toxicity in mouse xenografted with human HCT-116 cells assessed as reduction in liver damage at 50 to 100 mg/kg, po administered for 20 days and measured every 2 days by H and E staining based method. The format is organism-based. As to conditions: in vivo, 480 h, dose 50-100 mg/kg, time 20 day.
In data set [31] the test system is HCT-116. In words: Induction of apoptosis in human HCT-116 cells assessed as early apoptotic cells at 0.5 uM incubated for 24 hrs by Annexin V and PI staining based flow cytometry analysis (reference value: 0.26%). In kind it is functional.
The subject of data set [32] is HCT-116. In words: Induction of apoptosis in human HCT-116 cells assessed as necrotic cells at 0.125 uM incubated for 24 hrs by Annexin V and PI staining based flow cytometry analysis (reference value: 0.04%). The format is functional.
For data set [33], the target named is T1, Tubulin (Homo sapiens). In words: Induction of microtubule depolymerization in human HCT-116 cells assessed as appearance of short microtubules at 40 nM by immunofluorescent assay. In kind it is cell-based.
Data set [34] deals with HCT-116. In words: Antitumor activity against human HCT-116 cells xenografted in nude mouse assessed as reduction in tumor volume at 100 mg/kg, po administered for 20 days and measured every 2 days. The format is functional, organism-based. Conditions: time 20.0 day.
Data set [35] deals with HCT-116. Nature of the data set: Induction of apoptosis in human HCT-116 cells assessed as necrotic cells at 2 uM incubated for 24 hrs by Annexin V and PI staining based flow cytometry analysis (reference value: 0.04%). In kind it is functional.
The target of data set [36] is T1, Tubulin (Homo sapiens). Nature of the data set: Induction of microtubule depolymerization in human HCT-116 cells assessed as appearance of short microtubules at 160 nM by immunofluorescent assay. In kind it is cell-based.
The subject of data set [37] is HCT-116. Nature of the data set: Inhibition of colony formation in human HCT-116 cells incubated with compound for 24 hrs followed by media replacement and measured after 10 days by crystal violet staining based assay. The format is functional, cell-based. As to conditions: dose 0.5-2 µM.
The test system of data set [38] is HCT-116. Nature of the data set: Induction of apoptosis in human HCT-116 cells assessed as viable cells at 0.5 uM incubated for 24 hrs by Annexin V and PI staining based flow cytometry analysis (reference value: 99.63%). As to conditions: read-out: Activity. The format is functional.

In the case of `COc1ccc(/C=C\c2cc(OC)c(OC)c(OC)c2)cc1O` [COMBRETASTATIN A4], the half-life (as a rule, how long it takes for the measured level to halve) in [1] came to 2.3 min; in data set [8], 9.5 min. Further, the Activity result in [2] is reported as “Non-Toxic”; in data set [4], 28.8%; in [9], “Non-Toxic”; in data set [10] it was 31.4%; in data set [11] it was “Non-Toxic”. Also, the IC50 – broadly, the concentration that gives 50% inhibition – in data set [3] turned out to be 0.63 µM; in data set [5], 2.13 µM; in [7], 40 µM; in data set [12], 2.32 µM; in data set [13] it was 1.36 µM. Also, the IC50 at 48 h in [6] is more than 80 µM.
As to `COc1cc(-c2ccnn2-c2ccc(N)cc2)cc(OC)c1OC`, the Activity was 4.87% in [14]; 19.38% in [15]; 49.45% in data set [17]; “Dose-Dependent Effect” in data set [18]; “Non-Toxic” in [19]; 27% in data set [4]. The Activity result is reported as “Non-Toxic” in data set [21]; 28.79% in data set [25]; 46.19% in data set [27]; 75.68% in data set [28]; “Non-Toxic” in data set [30]; 61.42% in data set [31]. Also, the Activity in [32] worked out at 2.17%; in [10], 44.1%; in [35] it was 1.72%. Besides, the half-life in data set [1] was 6.9 min; in [8] it was 106 min. Also, the IC50 in data set [3] came to 24.6 µM; in [5], 11.4 µM; in data set [7], 37.5 µM; in data set [24], 8.4 µM; in data set [12], 2.65 µM; in data set [13], 1.54 µM. Moreover, the result in data set [16], in [23], in data set [33] and in data set [36] was Active. Moreover, the viability at 2 µM in [20] was determined as 3.22%. Further, the viability at 0.125 µM in data set [22] stood at 2.2%. For the same compound, in [6], the IC50 at 48 h was more than 80 µM. Also, the inhibition (usually how much of the control response was suppressed) at 2 µM in [26] was 100%. Besides, the outcome in data set [29] and in [34] was inactive. Also, the inhibition entry in data set [37] is “Dose-Dependent Effect”. Moreover, the viability at 0.5 µM in data set [38] worked out at 4.92%.

These data come from ChEMBL document CHEMBL5360544, “Design, synthesis, and biological evaluation of diaryl heterocyclic derivatives targeting tubulin polymerization with potent anticancer activities” (Eur J Med Chem, 2023).
